The subject of the test is L1210 leukemia ip in BDF1 mice, survival T/C. Kind of test: NCI In Vivo Anticancer Drug Screen. Data for tumor model L1210 Leukemia (intraperitoneal) in B6D2F1 (BDF1) mice. As to conditions: endpoint: mean survival time, higher = longer survival. The essentials:
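Survival endpoint. Drug-treated group vs vehicle group, expressed as T divided by C. Tumor passaged by transplantation.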

Where [1] appears, read: dose: 50.0 mg/kg/injection, schedule: Q01DX009 (ip), vehicle: saline with Tween-80.
Setting [2] is: dose: 100.0 mg/kg/injection, schedule: Q01DX009 (ip), vehicle: saline with Tween-80.
Setting [3] is: dose: 100.0 mg/kg/injection, schedule: Q01DX001 (ip), vehicle: saline.
The mark [4] stands for this setting: dose: 200.0 mg/kg/injection, schedule: Q01DX001 (ip), vehicle: saline.
The mark [5] stands for this setting: dose: 400.0 mg/kg/injection, schedule: Q01DX001 (ip), vehicle: saline.
Setting [6] is: dose: 25.0 mg/kg/injection, schedule: Q01DX009 (ip), vehicle: saline.
[7] abbreviates: dose: 50.0 mg/kg/injection, schedule: Q01DX009 (ip), vehicle: saline.
Setting [8] is: dose: 100.0 mg/kg/injection, schedule: Q01DX009 (ip), vehicle: saline.
Setting [9] is: dose: 100.0 mg/kg/injection, schedule: Q01DX001 (ip), vehicle: saline with Tween-80.
Where [10] appears, read: dose: 200.0 mg/kg/injection, schedule: Q01DX001 (ip), vehicle: saline with Tween-80.
Where [11] appears, read: dose: 100.0 mg/kg/injection, schedule: Q04DX003 (ip), vehicle: saline.
The mark [12] stands for this setting: dose: 200.0 mg/kg/injection, schedule: Q04DX003 (ip), vehicle: saline.
Setting [13] is: dose: 200.0 mg/kg/injection, schedule: Q01DX009 (ip), vehicle: saline.

Where “and” joins values, the source holds several entries; their conditions need not be identical. Equal entries are not always repeated. Toxic doses and inconclusive results are not listed.

As to `CCO/C=C1\SC(=S)N(c2cccc(OC)c2)C1=O`, the T/C by setting is: (dose: 117.0 mg/kg/injection, schedule: Q01DX009 (ip), vehicle: saline with Tween-80) 116 % of control; (dose: 176.0 mg/kg/injection, schedule: Q01DX009 (ip), vehicle: saline with Tween-80) 108 % of control; (dose: 264.0 mg/kg/injection, schedule: Q01DX009 (ip), vehicle: saline with Tween-80) 121 % of control; (dose: 400.0 mg/kg/injection, schedule: Q01DX009 (ip), vehicle: saline with Tween-80) 117 % of control.

Turning to `CCS(=O)(=O)CCN1C(=O)C2C3CCC(O3)C2C1=O` (centres undefined), the T/C runs as follows: (dose: 100.0 mg/kg/injection, schedule: Q04DX002 (ip), vehicle: Klucel (hydroxypropylcellulose) (HPC)) 98 % of control; (dose: 200.0 mg/kg/injection, schedule: Q04DX002 (ip), vehicle: Klucel (hydroxypropylcellulose) (HPC)) 95 % of control; (dose: 400.0 mg/kg/injection, schedule: Q04DX002 (ip), vehicle: Klucel (hydroxypropylcellulose) (HPC)) 117 % of control.

For the molecule `NC(Cc1cc(I)c(Oc2ccc(O)c(I)c2)c(I)c1)C(=O)O` (centres undefined), the T/C is, setting by setting: (dose: 25.0 micrograms/kg/injection, schedule: Q01DX Z (ip), vehicle: saline) 86 % of control; (dose: 50.0 micrograms/kg/injection, schedule: Q01DX Z (ip), vehicle: saline) 92 % of control; (dose: 100.0 micrograms/kg/injection, schedule: Q01DX Z (ip), vehicle: saline) 101 % of control; (dose: 200.0 micrograms/kg/injection, schedule: Q01DX Z (ip), vehicle: saline) 89 % of control.

`Oc1ccccc1/C=N/Sc1ccccc1.Oc1ccccc1/C=N/Sc1ccccc1.[Cl][Pd][Cl]`: the T/C is 90 % of control (dose: 12.5 mg/kg/injection, schedule: Q04DX002 (ip), vehicle: Klucel (hydroxypropylcellulose) (HPC)); 101 % of control (dose: 25.0 mg/kg/injection, schedule: Q04DX002 (ip), vehicle: Klucel (hydroxypropylcellulose) (HPC)); 111 % of control (dose: 50.0 mg/kg/injection, schedule: Q04DX002 (ip), vehicle: Klucel (hydroxypropylcellulose) (HPC)).

As to `CC1CC=C(/C=N\NC(=O)c2ccc[n+](C)c2)C(C)O1` (centres undefined), the T/C by setting is: under setting [1], 96 % of control; under setting [2], 96 % of control; (dose: 200.0 mg/kg/injection, schedule: Q01DX009 (ip), vehicle: saline with Tween-80) 93 % of control.

For the molecule `CCOC(=O)CC1(C)CCC2C1C(=O)OC2(C)C` (centres undefined), the T/C under setting [3] was 105 % of control, the T/C under setting [4] was 104 % of control and the T/C under setting [5] was 110 % of control.

Turning to `Nc1nc(=O)n(C2OC(CO)C(O)C2O)c2ccccc12` (centres undefined), the T/C runs as follows: under setting [3], 101 % of control; under setting [4], 101 % of control; under setting [5], 101 % of control.

Turning to `N#CC1(Nc2ccc3c4c(cccc24)CC3)CCCCC1`, the T/C is 95 % of control (dose: 100.0 mg/kg/injection, schedule: Q04DX002 (ip), vehicle: saline with Tween-80); 109 % of control (dose: 200.0 mg/kg/injection, schedule: Q04DX002 (ip), vehicle: saline with Tween-80); 95 % of control (dose: 400.0 mg/kg/injection, schedule: Q04DX002 (ip), vehicle: saline with Tween-80).

On to `Cl[Si](Cl)(Cl)CCc1ccccc1`, for which the T/C was 104 % of control under setting [6], 101 % of control under setting [7] and 90 % of control under setting [8].

For the molecule `O=C(CC=C(c1ccccc1)c1ccccc1)Nc1ccccc1`, the T/C under setting [9] is 90 % of control and the T/C under setting [10] is 87 % of control.

Regarding `C[N+](C)(C)CCCCCC[N+](C)(C)C`, the T/C is 102 % of control under setting [6]; 108 % of control (dose: 25.0 mg/kg/injection, schedule: Q04DX003 (ip), vehicle: saline); 104 % of control under setting [7]; 97 % of control (dose: 50.0 mg/kg/injection, schedule: Q04DX003 (ip), vehicle: saline); 96 % of control under setting [8]; 94 % of control and 89 % of control under setting [11].

Regarding `C[N+]1(C)CCOCC1`, the T/C by setting is: (dose: 10.0 mg/kg/injection, schedule: Q01DX001 (ip), vehicle: saline) 99 % of control; (dose: 20.0 mg/kg/injection, schedule: Q01DX001 (ip), vehicle: saline) 100 % of control; (dose: 40.0 mg/kg/injection, schedule: Q01DX001 (ip), vehicle: saline) 96 % of control.

For the molecule `CCN(CC)CCNc1c(C)cc(CO)c(Cl)c1C`, the T/C by setting is: (dose: 31.25 mg/kg/injection, schedule: Q01DX009 (ip), vehicle: saline) 97 % of control; (dose: 62.5 mg/kg/injection, schedule: Q01DX009 (ip), vehicle: saline) 99 % of control; (dose: 125.0 mg/kg/injection, schedule: Q01DX009 (ip), vehicle: saline) 97 % of control; (dose: 250.0 mg/kg/injection, schedule: Q01DX009 (ip), vehicle: saline) 103 % of control.

With `CNC(=N)c1ccc(NC(=N)c2ccc(NC(=O)Nc3cccc(NC(=O)Nc4ccc(C(=N)Nc5ccc(C(=N)NC)cc5)cc4)c3)cc2)cc1`, the T/C is, setting by setting: (dose: 0.31 mg/kg/injection, schedule: Q01DX015 (ip), vehicle: water) 103 % of control; (dose: 0.62 mg/kg/injection, schedule: Q01DX015 (ip), vehicle: water) 115 % of control; (dose: 1.0 mg/kg/injection, schedule: Q01DX Z (ip), vehicle: water) 154 % of control; (dose: 2.0 mg/kg/injection, schedule: Q01DX Z (ip), vehicle: water) 158 % of control; (dose: 3.5 mg/kg/injection, schedule: Q01DX Z (ip), vehicle: water) 150 % of control; (dose: 4.0 mg/kg/injection, schedule: Q01DX Z (ip), vehicle: water) 150 % of control. In addition, the T/C runs as follows: (dose: 5.0 mg/kg/injection, schedule: Q01DX015 (ip), vehicle: water) 162 % of control; (dose: 7.0 mg/kg/injection, schedule: Q01DX Z (ip), vehicle: water) 172 % of control; (dose: 7.5 mg/kg/injection, schedule: Q01DX015 (ip), vehicle: water) 203 % of control; (dose: 10.0 mg/kg/injection, schedule: Q01DX015 (ip), vehicle: water) 241 % of control; (dose: 10.0 mg/kg/injection, schedule: Q01DX Z (ip), vehicle: water) 236 % of control; (dose: 14.25 mg/kg/injection, schedule: Q01DX Z (ip), vehicle: water) 193 % of control. Besides, the T/C reads like this: (dose: 15.0 mg/kg/injection, schedule: Q01DX015 (ip), vehicle: water) 340 % of control; (dose: 28.5 mg/kg/injection, schedule: Q01DX Z (ip), vehicle: water) 92 % of control.

For `OC1C=NC=N1` (centres undefined), the T/C was 92 % of control under setting [11]; 109 % of control under setting [12]; 95 % of control (dose: 400.0 mg/kg/injection, schedule: Q04DX003 (ip), vehicle: saline).

Take `CCCCCCCC(=O)OCCCl`: the T/C runs as follows: under setting [8], 94 % of control; under setting [13], 97 % of control; (dose: 400.0 mg/kg/injection, schedule: Q01DX009 (ip), vehicle: saline) 91 % of control.

Consider `C#CC1(NC(=S)Nc2ccc(C)cc2)CCCCC1`, for which the T/C was 100 % of control and 92 % of control (dose: 100.0 mg/kg/injection, schedule: Q01DX009 (ip), vehicle: carboxymethylcellulose (CMC)); 95 % of control and 100 % of control (dose: 200.0 mg/kg/injection, schedule: Q01DX009 (ip), vehicle: carboxymethylcellulose (CMC)); 106 % of control and 113 % of control (dose: 400.0 mg/kg/injection, schedule: Q01DX009 (ip), vehicle: carboxymethylcellulose (CMC)).

For `OCCSSSCCO`, the T/C (dose: 75.0 mg/kg/injection, schedule: Q01DX001 (ip), vehicle: other) was 105 % of control and the T/C (dose: 150.0 mg/kg/injection, schedule: Q01DX001 (ip), vehicle: other) is 115 % of control.

Regarding `COc1ccc(OC)c(NC(=O)NNC(=O)c2ccc(Cl)cc2)c1`, the T/C (dose: 25.0 mg/kg/injection, schedule: Q01DX009 (ip), vehicle: saline with Tween-80) was 95 % of control; the T/C under setting [1] is 94 % of control; the T/C under setting [2] is 92 % of control.

Take `CCCCCCC(CCC1CCCCC1)C(=O)O` (centres undefined): the T/C is, setting by setting: under setting [9], 88 % of control; under setting [10], 96 % of control; (dose: 400.0 mg/kg/injection, schedule: Q01DX001 (ip), vehicle: saline with Tween-80) 92 % of control.

For `C=CCOCC(O)CNCCCOC` (centres undefined), the T/C by setting is: under setting [8], 107 % of control; under setting [11], 96 % of control; under setting [13], 98 % of control; under setting [12], 98 % of control.

The values above are taken from PubChem BioAssay AID248 (DTP/NCI, 2004).
